Experimental data as given in patent publication EP2296651B1, “5-HYDROXYMETHYL-OXAZOLIDIN-2-ONE DERIVATIVES FOR TREATING BACTERIAL INTESTINAL DISEASES” (Actelion Pharmaceuticals Ltd., priority 2008, dated 2009).
Converted amounts (≈) assume the structure as drawn. Like-named read-outs stand apart in the source and are kept apart here.

Tests used:
C. difficile ATCC 43596 = assay: Broth microdilution MIC, anaerobic; type: cell-based, Clostridium difficile; conditions: Clostridioides difficile, ATCC43596, 48h at 37°C, read-out: MIC regarding C. difficile ATCC 43596
C. difficile NC 13366 = assay: Broth microdilution MIC, anaerobic; type: cell-based, Clostridium difficile; conditions: Clostridioides difficile, NC13366, 48h at 37°C, quinolone-resistant hypervirulent strain, read-out: MIC regarding C. difficile NC 13366
C. perfringens DSM 756 = assay: microbe, parasite or virus in culture; type: cell-based; conditions: Clostridium perfringens, DSM756, 48 h, read-out: MIC regarding C. perfringens DSM 756
[1] = system: C. difficile strain NC 13366; type: cell-based
[2] = system: C. difficile A-1050 (ATCC 43596); assay: Spore formation at sub-MIC concentrations; type: cell-based; conditions: 0.5x the MIC; 4 days anaerobic incubation at 37°C
C. difficile ATCC 9689 = assay: Broth microdilution MIC, anaerobic; type: cell-based, Clostridium difficile; conditions: Clostridioides difficile, ATCC9689, 48h at 37°C, read-out: MIC regarding C. difficile ATCC 9689
[3] = system: 209 diverse clinical isolates of C. difficile; assay: CLSI agar dilution MIC, clinical isolates; type: cell-based, Clostridium difficile; conditions: Clostridioides difficile, 48 h
S. aureus ATCC 29213 = assay: Broth microdilution MIC, aerobic Gram-positive bacteria; conditions: Staphylococcus aureus, ATCC29213, 48 h
S. aureus A-798 (MRSA) = assay: as above; conditions: Staphylococcus aureus, 48 h
[4] = system: S. aureus ATCC 43300 (MRSA); assay: as above; conditions: Staphylococcus aureus, 48 h
S. aureus S1 (LZD-R) = assay: as above; conditions: Staphylococcus aureus, 48 h
E. faecalis ATCC 29212 = assay: as above; conditions: Enterococcus faecalis, ATCC29212, 48 h
E. faecalis H 4060 = assay: as above; conditions: Enterococcus faecalis, H4060, 48 h
E. faecalis H 6279 = assay: as above; conditions: Enterococcus faecalis, H6279, 48 h
E. faecalis H 6897 = assay: as above; conditions: Enterococcus faecalis, H6897, 48 h
E. faecalis H 7094 = assay: as above; conditions: Enterococcus faecalis, H7094, 48 h
E. faecalis H 7460 = assay: as above; conditions: Enterococcus faecalis, H7460, 48 h
E. faecium ATCC 19434 = assay: as above; conditions: Enterococcus faecium, ATCC19434, 48 h
E. faecium H 9070 = assay: as above; conditions: Enterococcus faecium, H9070, 48 h
E. faecium H 7969 = assay: as above; conditions: Enterococcus faecium, H7969, 48 h
E. faecium H 7966 = assay: as above; conditions: Enterococcus faecium, H7966, 48 h
E. faecium H 7965 = assay: as above; conditions: Enterococcus faecium, H7965, 48 h
E. faecium H 7937 = assay: as above; conditions: Enterococcus faecium, H7937, 48 h
E. faecium A 962 = assay: as above; conditions: Enterococcus faecium, A962, 48 h
E. faecium A 949 = assay: as above; conditions: Enterococcus faecium, A949, 48 h
E. faecium L1 (LZD-R) = assay: as above; conditions: Enterococcus faecium, 48 h
[5] = system: C. difficile strain NC 13366; assay: microbe, parasite or virus in culture; type: cell-based

Row | SMILES | MIC (C. difficile ATCC 43596) | MIC (C. difficile NC 13366) | MIC (C. perfringens DSM 756) | spores of total cell count [2] | MIC (S. aureus ATCC 29213) | MIC (S. aureus A-798 (MRSA)) | MIC [4] | MIC (S. aureus S1 (LZD-R)) | MIC (E. faecalis ATCC 29212) | MIC (E. faecalis H 4060) | MIC (E. faecalis H 6279) | MIC (E. faecalis H 6897) | MIC (E. faecalis H 7094) | MIC (E. faecalis H 7460) | MIC (E. faecium ATCC 19434) | MIC (E. faecium H 9070) | MIC (E. faecium H 7969) | MIC (E. faecium H 7966) | MIC (E. faecium H 7965) | MIC (E. faecium H 7937) | further results
1 | O=C(O)c1cn(C2CC2)c2nc(N3CCC(O)(COc4ccc(N5C[C@H](CO)OC5=O)cc4F)CC3)c(F)cc2c1=O [Example 2, 1-cyclopropyl-6-fluoro-7-{4-[2-fluoro-4-((R)-5-hydroxymethyl-2-oxo-oxazolidin-3-yl)phenoxymethyl]-4-hydroxy-piperidin-1-yl}-4-oxo-1,4-dihydro-[1,8]naphthyridine-3-carboxylic acid] | 0.06 µg/mL (≈ 0.102 µM) | 0.03 µg/mL (≈ 0.0511 µM) | ≤ 0.03 µg/mL | – | – | – | – | – | – | – | – | – | – | – | – | – | – | – | – | – | –
2 | Cc1ncc([N+](=O)[O-])n1CCO [metronidazole] | – | – | – | > 90% | – | – | – | – | – | – | – | – | – | – | – | – | – | – | – | – | de novo toxin A production ([1]; 1 and 8 µg/ml, supernatants at day 5, high density stationary phase cultures): did not inhibit toxin A production under these conditions or did so only weakly
3 | CC(=O)NC[C@H]1CN(c2ccc(N3CCOCC3)c(F)c2)C(=O)O1 [Linezolid] | 8 µg/mL (≈ 23.7 µM) | 1 µg/mL (≈ 2.96 µM) | 4 µg/mL (≈ 11.9 µM) | – | 2 µg/mL (≈ 5.93 µM) | 2 µg/mL (≈ 5.93 µM) | 2 µg/mL (≈ 5.93 µM) | > 32 µg/mL | 2 µg/mL (≈ 5.93 µM) | 2 µg/mL (≈ 5.93 µM) | 2 µg/mL (≈ 5.93 µM) | 4 µg/mL (≈ 11.9 µM) | 4 µg/mL (≈ 11.9 µM) | 16 µg/mL (≈ 47.4 µM) | 2 µg/mL (≈ 5.93 µM) | 2 µg/mL (≈ 5.93 µM) | 4 µg/mL (≈ 11.9 µM) | 1 µg/mL (≈ 2.96 µM) | 2 µg/mL (≈ 5.93 µM) | 1 µg/mL (≈ 2.96 µM) | MIC (C. difficile ATCC 9689): 2 µg/mL (≈ 5.93 µM); MIC90 ([3]; 209 clinical isolates of C. difficile, read-out: MIC90): 8 µg/mL (≈ 23.7 µM); MIC (E. faecium A 962): 4 µg/mL (≈ 11.9 µM); MIC (E. faecium A 949): 2 µg/mL (≈ 5.93 µM); MIC (E. faecium L1 (LZD-R)): > 32 µg/mL
4 | CN[C@H](CC(C)C)C(=O)N[C@H]1C(=O)N[C@@H](CC(N)=O)C(=O)N[C@H]2C(=O)N[C@H]3C(=O)N[C@H](C(=O)N[C@H](C(=O)O)c4cc(O)cc(O)c4-c4cc3ccc4O)[C@H](O)c3ccc(c(Cl)c3)Oc3cc2cc(c3O[C@@H]2O[C@H](CO)[C@@H](O)[C@H](O)[C@H]2O[C@H]2C[C@](C)(N)[C@H](O)[C@H](C)O2)Oc2ccc(cc2Cl)[C@H]1O [vancomycin] | – | – | – | > 90% | 1 µg/mL (≈ 0.69 µM) | 1 µg/mL (≈ 0.69 µM) | 1 µg/mL (≈ 0.69 µM) | 1 µg/mL (≈ 0.69 µM) | 1 µg/mL (≈ 0.69 µM) | > 32 µg/mL | > 32 µg/mL | > 32 µg/mL | > 32 µg/mL | > 32 µg/mL | 1 µg/mL (≈ 0.69 µM) | > 32 µg/mL | > 32 µg/mL | > 32 µg/mL | > 32 µg/mL | > 32 µg/mL | MIC90 [3]: 2 µg/mL (≈ 1.38 µM); de novo toxin A production [1]: did not inhibit toxin A production under these conditions or did so only weakly; toxin B activities of the supernatants, reduction compared to the untreated control [5]: not reduced; inhibition at 8 µg/mL ([5]; Clostridioides difficile, NC13366, CHO, 120 h, read-out: toxin B activities of the supernatants, reduction compared to the untreated control): 30%; MIC (E. faecium A 962): > 32 µg/mL; MIC (E. faecium A 949): > 32 µg/mL; MIC (E. faecium L1 (LZD-R)): 0.5 µg/mL (≈ 0.345 µM)
